Measured values reported in US20250163051A1, “PYRIMIDO AROMATIC RING COMPOUND AND USE THEREOF IN DRUG” (SUNSHINE LAKE PHARMA CO., LTD., priority 2022, published 2025).

Tests used:
CYP2D6 = molecular target: T1, CYP2D6 (Homo sapiens, UniProt P10635); assay: Inhibition of human liver microsomal CYP2D6; type: in vitro ADME; details: human liver microsomes, 10 μM test substance; read-out: Relative inhibition rate (%) CYP2D6
T1 construct: from tissue; host or cells: human liver microsomes
Experimental: Experimental purpose: The inhibitory effects of the test compounds on the major metabolizing enzymes CYP1A2, CYP2C19, CYP2D6 and CYP3A4 in microsomes were evaluated using the human liver microsomal system. Experimental method: The test substance was incubated with a suspension of human liver microsomes containing cytochrome P450 enzymes CYP1A2, CYP2C19, CYP2D6 and CYP3A4 at a concentration of 10 μM in the final incubation system. The known substrates were metabolized by the corresponding single enzymes to generate specific metabolites, and the metabolites were determined by UPLC-MS/MS method. The relative inhibition rate (%) was calculated by the percentage reduction of metabolite production by the test compound and solvent DMSO in the same time period. N is the concentration value of the probe substrate metabolite and it is assumed that the […] with or without inhibitor at 0 min is 0. N+inh is the metabolite concentration in the group with inhibitor, and Nveh is the metabolite concentration in the group without inhibitor. The results of the inhibition test of the compounds of the present invention on human liver microsomal CYP enzymes are shown in Table C.

CYP2B6 = assay: Induction of CYP2B6 in frozen human hepatocytes; type: in vitro ADME; details: 72 h induction, concentration and readout not stated; for CYP2B6 Induction percentage relative to positive control (%): positive control Phenobarbital
Experimental: Experimental purpose: Using frozen human hepatocytes as the test system, the induction effects of the test substances on CYP1A2, CYP2B6 and CYP3A4 were evaluated from two aspects of enzyme activity and mRNA level.
Experimental method: 24 hours after cell plating, induction was started by adding medium containing the test compound (test concentrations were 10, 1, and 0.1 μM), and fresh drug-containing medium was replaced every 24 hours. After 72 hours of induction, the medium was replaced with medium containing CYP1A2, CYP2B6, and CYP3A4 specific substrates for 30 minutes of incubation. 100 μL was taken for treatment, and the labeled metabolites of the substrates were detected to evaluate the enzyme activity level. Finally, the cells were lysed and reverse transcribed, and the expression levels of CYP1A2, CYP2B6 and CYP3A4 genes in the cells were evaluated by real-time quantitative PCR.
The induction fold of the test compound compared with the blank control and the induction percentage of the test compound compared with the positive control were used as the basis for evaluating the induction potential of the test compound. Among them, the positive control for CYP1A2 is Omeprazole; the positive control for CYP2B6 is Phenobarbital; the positive control for CYP3A4 is Rifampicin.

hTLR7 = molecular target: T2, hTLR7 (Homo sapiens, UniProt Q9NYK1); assay: Agonistic activity on human TLR7 in HEK-Blue hTLR7 cells (QUANTI-Blue); type: cell-based; details: 24 h incubation, OD650, read-out: hTLR 7 EC50
T2 construct: expressed in transfected cells; host or cells: HEK-Blue hTLR7 cells
T2 sequence (Q9NYK1 27-1049): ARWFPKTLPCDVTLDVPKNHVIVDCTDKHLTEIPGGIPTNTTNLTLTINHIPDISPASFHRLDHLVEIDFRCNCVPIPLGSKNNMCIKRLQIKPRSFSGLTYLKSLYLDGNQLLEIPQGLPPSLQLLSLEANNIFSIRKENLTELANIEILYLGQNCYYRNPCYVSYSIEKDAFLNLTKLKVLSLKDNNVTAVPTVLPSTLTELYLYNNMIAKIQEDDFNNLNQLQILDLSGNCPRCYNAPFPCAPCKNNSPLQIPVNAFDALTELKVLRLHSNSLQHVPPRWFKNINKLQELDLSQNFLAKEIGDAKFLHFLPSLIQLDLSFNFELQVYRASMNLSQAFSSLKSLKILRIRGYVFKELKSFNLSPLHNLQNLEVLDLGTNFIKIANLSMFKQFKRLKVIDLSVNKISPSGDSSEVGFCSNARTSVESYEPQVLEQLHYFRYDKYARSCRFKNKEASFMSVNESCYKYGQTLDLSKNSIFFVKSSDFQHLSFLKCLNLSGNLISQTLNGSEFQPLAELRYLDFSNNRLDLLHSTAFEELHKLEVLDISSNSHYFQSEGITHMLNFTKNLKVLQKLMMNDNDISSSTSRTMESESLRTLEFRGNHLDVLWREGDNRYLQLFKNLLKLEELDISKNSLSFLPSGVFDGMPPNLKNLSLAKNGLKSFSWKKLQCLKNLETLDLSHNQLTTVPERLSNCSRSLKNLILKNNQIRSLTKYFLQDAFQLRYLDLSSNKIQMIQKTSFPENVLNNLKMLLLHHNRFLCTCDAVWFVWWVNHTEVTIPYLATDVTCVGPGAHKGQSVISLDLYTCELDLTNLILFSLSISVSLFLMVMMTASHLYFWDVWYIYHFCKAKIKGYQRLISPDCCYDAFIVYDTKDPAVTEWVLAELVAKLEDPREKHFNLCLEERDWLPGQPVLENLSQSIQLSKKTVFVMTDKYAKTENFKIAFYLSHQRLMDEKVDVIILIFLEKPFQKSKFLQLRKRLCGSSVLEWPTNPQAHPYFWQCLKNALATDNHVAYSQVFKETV

T1 sequence (P10635 whole entry): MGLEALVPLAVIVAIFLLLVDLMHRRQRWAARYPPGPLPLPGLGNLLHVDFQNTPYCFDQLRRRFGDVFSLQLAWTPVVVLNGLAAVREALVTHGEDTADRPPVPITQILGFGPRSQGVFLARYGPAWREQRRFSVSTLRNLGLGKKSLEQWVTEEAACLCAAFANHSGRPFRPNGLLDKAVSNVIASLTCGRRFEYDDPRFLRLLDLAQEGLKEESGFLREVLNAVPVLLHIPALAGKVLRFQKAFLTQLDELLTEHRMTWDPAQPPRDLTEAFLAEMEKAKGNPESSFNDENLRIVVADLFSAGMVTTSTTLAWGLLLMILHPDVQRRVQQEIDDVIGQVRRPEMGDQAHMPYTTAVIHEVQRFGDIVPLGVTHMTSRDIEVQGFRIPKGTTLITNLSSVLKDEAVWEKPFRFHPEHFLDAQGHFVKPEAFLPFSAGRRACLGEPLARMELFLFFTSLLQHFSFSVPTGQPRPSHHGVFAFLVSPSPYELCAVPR

`C=CCCN(C)Cc1c[nH]c(=O)cc1-c1ccc2c(N[C@@](C)(CO)CCCC)nc(N)nc2c1` [Example 35] was tested, and the inhibition at 10 µM (CYP2D6) was 31.4%, the “CYP2B6 Induction fold relative to blank control” value (CYP2B6) was 0.4 and the “CYP2B6 Induction percentage relative to positive control (%)” value (CYP2B6) was −5.6%. For the same molecule, the EC50 (hTLR7) was 68.6 µM.
`CCCC[C@](C)(CO)Nc1nc(N)nc2cc(-c3cc(=O)[nH]cc3CN(C)CCOC)cnc12` [Example 21] was tested, and the inhibition at 10 µM (CYP2D6) was 9.5%, the “CYP2B6 Induction fold relative to blank control” value (CYP2B6) was 0.5 and the “CYP2B6 Induction percentage relative to positive control (%)” value (CYP2B6) was −4.8%. The EC50 (hTLR7) was 90.3 µM.
For `CCCC[C@](C)(CO)Nc1nc(N)nc2cc(-c3cc(=O)n(C)cc3CN3CCCCC3)ccc12` [Example 8], the inhibition at 10 µM (CYP2D6) was 18.1%, the “CYP2B6 Induction fold relative to blank control” value (CYP2B6) was 0.6 and the “CYP2B6 Induction percentage relative to positive control (%)” value (CYP2B6) was −4.1%. For the same molecule, the EC50 (hTLR7) was > 100 µM.
In the case of `CCCCN(C)Cc1c[nH]c(=O)cc1-c1cnc2c(N[C@@](C)(CO)CCCC)nc(N)nc2c1` [Example 28, (R)-4-(2-Amino-4-((1-hydroxy-2-methylhexan-2-yl)amino)pyrido[3,2-d]pyrimidin-7-yl)-5-((butyl(methyl)amino)methyl)pyridin-2(1H)-one], the inhibition at 10 µM (CYP2D6) is reported as 12.9%, the “CYP2B6 Induction fold relative to blank control” value (CYP2B6) is reported as 0.9 and the “CYP2B6 Induction percentage relative to positive control (%)” value (CYP2B6) is reported as −0.7%. The EC50 (hTLR7) was 29.5 µM.
